Results from the NIST ThermoML archive (doi:10.1007/s10765-007-0223-x).
Numbers after ± are expanded uncertainties.

Experiment: xn = mol fraction of the nth substance listed
Settings: 101 kPa, Liquid; for speed of sound: Single path-length method

COC(C)(C)C [2-methoxy-2-methylpropane] + Cc1ccccc1
speed of sound (288.15 K, x1 = 0.053): 1332.9 ± 2.1 m/s | speed of sound (288.15 K, x1 = 0.116): 1315.9 ± 2.1 m/s | speed of sound (288.15 K, x1 = 0.199): 1295.2 ± 2.1 m/s | speed of sound (288.15 K, x1 = 0.301): 1268.1 ± 2.1 m/s | speed of sound (288.15 K, x1 = 0.371): 1249.5 ± 2.1 m/s | speed of sound (288.15 K, x1 = 0.463): 1225.8 ± 2.1 m/s | speed of sound (288.15 K, x1 = 0.61): 1186.3 ± 2.1 m/s | speed of sound (288.15 K, x1 = 0.688): 1166 ± 2.1 m/s | speed of sound (288.15 K, x1 = 0.797): 1137.3 ± 2.1 m/s | speed of sound (288.15 K, x1 = 0.902): 1108.5 ± 2.1 m/s | speed of sound (288.15 K, x1 = 0.943): 1097.5 ± 2.1 m/s | speed of sound (288.15 K, x1 = 1): 1083.4 ± 2.1 m/s | mass density (288.15 K, x1 = 0.053): 864.558 ± 0.4 kg/m3 | mass density (288.15 K, x1 = 0.116): 856.488 ± 0.41 kg/m3 | mass density (288.15 K, x1 = 0.199): 845.884 ± 0.42 kg/m3 | mass density (288.15 K, x1 = 0.301): 832.848 ± 0.44 kg/m3 | mass density (288.15 K, x1 = 0.371): 824.068 ± 0.45 kg/m3 | mass density (288.15 K, x1 = 0.463): 812.346 ± 0.47 kg/m3 | mass density (288.15 K, x1 = 0.61): 793.998 ± 0.49 kg/m3 | mass density (288.15 K, x1 = 0.688): 784.329 ± 0.51 kg/m3 | mass density (288.15 K, x1 = 0.797): 770.803 ± 0.53 kg/m3 | mass density (288.15 K, x1 = 0.902): 757.81 ± 0.55 kg/m3 | mass density (288.15 K, x1 = 0.943): 752.561 ± 0.56 kg/m3 | mass density (288.15 K, x1 = 1): 744.861 ± 0.55 kg/m3 | speed of sound (290.65 K, x1 = 0.053): 1321.9 ± 2.1 m/s | speed of sound (290.65 K, x1 = 0.116): 1304.8 ± 2.1 m/s | speed of sound (290.65 K, x1 = 0.199): 1284.2 ± 2.1 m/s | speed of sound (290.65 K, x1 = 0.301): 1257.4 ± 2.1 m/s | speed of sound (290.65 K, x1 = 0.371): 1238.5 ± 2.1 m/s | speed of sound (290.65 K, x1 = 0.463): 1215 ± 2.1 m/s | speed of sound (290.65 K, x1 = 0.61): 1175.6 ± 2.1 m/s | speed of sound (290.65 K, x1 = 0.688): 1155 ± 2.1 m/s | speed of sound (290.65 K, x1 = 0.797): 1126.6 ± 2.1 m/s | speed of sound (290.65 K, x1 = 0.902): 1098.2 ± 2.1 m/s | speed of sound (290.65 K, x1 = 0.943): 1086.8 ± 2.1 m/s | speed of sound (290.65 K, x1 = 1): 1071.6 ± 2.1 m/s | mass density (290.65 K, x1 = 0.053): 862.236 ± 0.4 kg/m3 | mass density (290.65 K, x1 = 0.116): 854.153 ± 0.41 kg/m3 | mass density (290.65 K, x1 = 0.199): 843.533 ± 0.42 kg/m3 | mass density (290.65 K, x1 = 0.301): 830.472 ± 0.44 kg/m3 | mass density (290.65 K, x1 = 0.371): 821.675 ± 0.46 kg/m3 | mass density (290.65 K, x1 = 0.463): 809.929 ± 0.47 kg/m3 | mass density (290.65 K, x1 = 0.61): 791.542 ± 0.5 kg/m3 | mass density (290.65 K, x1 = 0.688): 781.848 ± 0.51 kg/m3 | mass density (290.65 K, x1 = 0.797): 768.289 ± 0.53 kg/m3 | mass density (290.65 K, x1 = 0.902): 755.262 ± 0.55 kg/m3 | mass density (290.65 K, x1 = 0.943): 750 ± 0.56 kg/m3 | mass density (290.65 K, x1 = 1): 742.259 ± 0.56 kg/m3 | speed of sound (293.15 K, x1 = 0.053): 1310.9 ± 2.1 m/s | speed of sound (293.15 K, x1 = 0.116): 1293.8 ± 2.1 m/s | speed of sound (293.15 K, x1 = 0.199): 1273.2 ± 2.1 m/s | speed of sound (293.15 K, x1 = 0.301): 1246.4 ± 2.1 m/s | speed of sound (293.15 K, x1 = 0.371): 1227.5 ± 2.1 m/s | speed of sound (293.15 K, x1 = 0.463): 1203.9 ± 2.1 m/s | speed of sound (293.15 K, x1 = 0.61): 1164.7 ± 2.1 m/s | speed of sound (293.15 K, x1 = 0.688): 1143.9 ± 2.1 m/s | speed of sound (293.15 K, x1 = 0.797): 1115.7 ± 2.1 m/s | speed of sound (293.15 K, x1 = 0.902): 1087.4 ± 2.1 m/s | speed of sound (293.15 K, x1 = 0.943): 1075.9 ± 2.1 m/s | speed of sound (293.15 K, x1 = 1): 1060 ± 2.1 m/s | mass density (293.15 K, x1 = 0.053): 859.905 ± 0.4 kg/m3 | mass density (293.15 K, x1 = 0.116): 851.805 ± 0.41 kg/m3 | mass density (293.15 K, x1 = 0.199): 841.167 ± 0.43 kg/m3 | mass density (293.15 K, x1 = 0.301): 828.083 ± 0.45 kg/m3 | mass density (293.15 K, x1 = 0.371): 819.27 ± 0.46 kg/m3 | mass density (293.15 K, x1 = 0.463): 807.497 ± 0.48 kg/m3 | mass density (293.15 K, x1 = 0.61): 789.068 ± 0.5 kg/m3 | mass density (293.15 K, x1 = 0.688): 779.352 ± 0.52 kg/m3 | mass density (293.15 K, x1 = 0.797): 765.757 ± 0.54 kg/m3 | mass density (293.15 K, x1 = 0.902): 752.693 ± 0.56 kg/m3 | mass density (293.15 K, x1 = 0.943): 747.415 ± 0.56 kg/m3 | mass density (293.15 K, x1 = 1): 739.654 ± 0.56 kg/m3 | speed of sound (295.65 K, x1 = 0.053): 1299.9 ± 2.1 m/s | speed of sound (295.65 K, x1 = 0.116): 1282.8 ± 2.1 m/s | speed of sound (295.65 K, x1 = 0.199): 1262.2 ± 2.1 m/s | speed of sound (295.65 K, x1 = 0.301): 1235.4 ± 2.1 m/s | speed of sound (295.65 K, x1 = 0.371): 1216.5 ± 2.1 m/s | speed of sound (295.65 K, x1 = 0.463): 1193 ± 2.1 m/s | speed of sound (295.65 K, x1 = 0.61): 1153.6 ± 2.1 m/s | speed of sound (295.65 K, x1 = 0.688): 1132.8 ± 2.1 m/s | speed of sound (295.65 K, x1 = 0.797): 1104.9 ± 2.1 m/s | speed of sound (295.65 K, x1 = 0.902): 1076.7 ± 2.1 m/s | speed of sound (295.65 K, x1 = 0.943): 1064.8 ± 2.1 m/s | speed of sound (295.65 K, x1 = 1): 1048.5 ± 2.1 m/s | mass density (295.65 K, x1 = 0.053): 857.569 ± 0.41 kg/m3 | mass density (295.65 K, x1 = 0.116): 849.458 ± 0.42 kg/m3 | mass density (295.65 K, x1 = 0.199): 838.799 ± 0.43 kg/m3 | mass density (295.65 K, x1 = 0.301): 825.688 ± 0.45 kg/m3 | mass density (295.65 K, x1 = 0.371): 816.857 ± 0.46 kg/m3 | mass density (295.65 K, x1 = 0.463): 805.058 ± 0.48 kg/m3
